Key:
[1] = target: Mitogen-activated protein kinase kinase kinase 9 (Homo sapiens) (UniProt P80192); test: % Activity remaining of MLK1 in the Dundee kinase panel at 1.0 µM; details: Compound concentration 1.0 uM
[2] = target: Maternal embryonic leucine zipper kinase (Homo sapiens) (UniProt Q14680); test: % Activity remaining of MELK in the Dundee kinase panel at 1.0 µM; details: Compound concentration 1.0 uM
[3] = target: Interleukin-1 receptor-associated kinase 1 (Homo sapiens) (UniProt P51617); test: % Activity remaining of IRAK1 in the Dundee kinase panel at 1.0 µM; details: Compound concentration 1.0 uM
[4] = target: Casein kinase II subunit alpha (Homo sapiens) (UniProt P68400); test: % Activity remaining of CK2 in the Dundee kinase panel at 1.0 µM; details: Compound concentration 1.0 uM
[5] = target: Serine/threonine-protein kinase PINK1, mitochondrial (Homo sapiens) (UniProt Q9BXM7); test: % Activity remaining of PINK in the Dundee kinase panel at 1.0 µM; details: Compound concentration 1.0 uM
[6] = target: Casein kinase I isoform delta (Homo sapiens) (UniProt P48730); test: % Activity remaining of CK1 delta in the Dundee kinase panel at 1.0 µM; details: Compound concentration 1.0 uM
[7] = target: Serine/threonine-protein kinase PLK1 (Homo sapiens) (UniProt P53350); test: % Activity remaining of PLK1 in the Dundee kinase panel at 1.0 µM; details: Compound concentration 1.0 uM
Serine/threonine-protein kinase PLK1 (Homo sapiens), sequence (P53350 whole entry): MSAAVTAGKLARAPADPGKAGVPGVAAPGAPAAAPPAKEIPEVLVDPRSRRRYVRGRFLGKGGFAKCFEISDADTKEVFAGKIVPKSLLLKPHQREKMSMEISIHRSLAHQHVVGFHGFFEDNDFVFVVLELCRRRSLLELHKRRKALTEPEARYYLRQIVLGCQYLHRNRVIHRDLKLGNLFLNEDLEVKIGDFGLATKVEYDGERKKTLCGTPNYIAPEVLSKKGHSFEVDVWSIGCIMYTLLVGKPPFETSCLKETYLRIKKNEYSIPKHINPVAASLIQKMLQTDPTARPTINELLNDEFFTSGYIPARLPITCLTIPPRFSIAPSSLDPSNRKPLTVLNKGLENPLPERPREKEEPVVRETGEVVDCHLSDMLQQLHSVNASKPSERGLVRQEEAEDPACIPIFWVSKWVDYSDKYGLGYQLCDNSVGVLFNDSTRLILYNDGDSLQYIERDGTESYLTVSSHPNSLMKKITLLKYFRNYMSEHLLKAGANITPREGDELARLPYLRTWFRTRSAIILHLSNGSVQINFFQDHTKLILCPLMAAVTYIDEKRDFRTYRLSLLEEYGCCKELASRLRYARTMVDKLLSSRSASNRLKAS

[8] = target: Serine/threonine-protein kinase SIK2 (Homo sapiens) (UniProt Q9H0K1); test: % Activity remaining of SIK2 in the Dundee kinase panel at 1.0 µM; details: Compound concentration 1.0 uM
[9] = target: Mitogen-activated protein kinase 8 (Homo sapiens) (UniProt P45983); test: % Activity remaining of JNK1 in the Dundee kinase panel at 1.0 µM; details: Compound concentration 1.0 uM
[10] = target: RAC-alpha serine/threonine-protein kinase (Homo sapiens) (UniProt P31749); test: % Activity remaining of PKB alpha in the Dundee kinase panel at 1.0 µM; details: Compound concentration 1.0 uM
[11] = target: Phosphorylase b kinase regulatory subunit alpha, liver isoform (Homo sapiens) (UniProt P46019); test: % Activity remaining of PHK in the Dundee kinase panel at 1.0 µM; details: Compound concentration 1.0 uM
[12] = target: Serine/threonine-protein kinase pim-3 (Homo sapiens) (UniProt Q86V86); test: % Activity remaining of PIM3 in the Dundee kinase panel at 1.0 µM; details: Compound concentration 1.0 uM
[13] = target: Serine/threonine-protein kinase PAK 4 (Homo sapiens) (UniProt O96013); test: % Activity remaining of PAK4 in the Dundee kinase panel at 1.0 µM; details: Compound concentration 1.0 uM
[14] = target: Ribosomal protein S6 kinase alpha-1 (Homo sapiens) (UniProt Q15418); test: % Activity remaining of RSK1 in the Dundee kinase panel at 1.0 µM; details: Compound concentration 1.0 uM
Ribosomal protein S6 kinase alpha-1 (Homo sapiens), sequence (Q15418 whole entry): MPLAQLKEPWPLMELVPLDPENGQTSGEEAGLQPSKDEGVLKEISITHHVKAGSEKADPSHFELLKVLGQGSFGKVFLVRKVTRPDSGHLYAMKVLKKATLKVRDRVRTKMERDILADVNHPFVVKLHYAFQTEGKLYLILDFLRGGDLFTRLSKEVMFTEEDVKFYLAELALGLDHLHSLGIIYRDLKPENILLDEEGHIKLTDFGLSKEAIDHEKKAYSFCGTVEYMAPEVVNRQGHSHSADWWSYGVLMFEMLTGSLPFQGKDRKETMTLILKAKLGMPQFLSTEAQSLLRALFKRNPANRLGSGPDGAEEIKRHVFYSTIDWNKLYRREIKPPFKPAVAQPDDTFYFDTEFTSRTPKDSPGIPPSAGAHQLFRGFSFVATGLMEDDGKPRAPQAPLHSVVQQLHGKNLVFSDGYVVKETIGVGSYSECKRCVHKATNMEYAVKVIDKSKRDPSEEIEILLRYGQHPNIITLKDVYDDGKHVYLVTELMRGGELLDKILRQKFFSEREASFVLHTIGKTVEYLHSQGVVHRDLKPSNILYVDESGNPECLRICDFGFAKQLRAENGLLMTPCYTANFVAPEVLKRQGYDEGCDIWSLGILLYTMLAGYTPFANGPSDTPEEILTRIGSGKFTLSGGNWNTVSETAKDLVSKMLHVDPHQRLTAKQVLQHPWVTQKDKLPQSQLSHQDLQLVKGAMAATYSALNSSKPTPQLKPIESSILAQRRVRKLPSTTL

[15] = target: Angiopoietin-1 receptor (Homo sapiens) (UniProt Q02763); test: % Activity remaining of TIE2 in the Dundee kinase panel at 1.0 µM; details: Compound concentration 1.0 uM
[16] = target: Serine/threonine-protein kinase tousled-like 1 (Homo sapiens) (UniProt Q9UKI8); test: % Activity remaining of TLK1 in the Dundee kinase panel at 1.0 µM; details: Compound concentration 1.0 uM
Serine/threonine-protein kinase tousled-like 1 (Homo sapiens), sequence (Q9UKI8 whole entry): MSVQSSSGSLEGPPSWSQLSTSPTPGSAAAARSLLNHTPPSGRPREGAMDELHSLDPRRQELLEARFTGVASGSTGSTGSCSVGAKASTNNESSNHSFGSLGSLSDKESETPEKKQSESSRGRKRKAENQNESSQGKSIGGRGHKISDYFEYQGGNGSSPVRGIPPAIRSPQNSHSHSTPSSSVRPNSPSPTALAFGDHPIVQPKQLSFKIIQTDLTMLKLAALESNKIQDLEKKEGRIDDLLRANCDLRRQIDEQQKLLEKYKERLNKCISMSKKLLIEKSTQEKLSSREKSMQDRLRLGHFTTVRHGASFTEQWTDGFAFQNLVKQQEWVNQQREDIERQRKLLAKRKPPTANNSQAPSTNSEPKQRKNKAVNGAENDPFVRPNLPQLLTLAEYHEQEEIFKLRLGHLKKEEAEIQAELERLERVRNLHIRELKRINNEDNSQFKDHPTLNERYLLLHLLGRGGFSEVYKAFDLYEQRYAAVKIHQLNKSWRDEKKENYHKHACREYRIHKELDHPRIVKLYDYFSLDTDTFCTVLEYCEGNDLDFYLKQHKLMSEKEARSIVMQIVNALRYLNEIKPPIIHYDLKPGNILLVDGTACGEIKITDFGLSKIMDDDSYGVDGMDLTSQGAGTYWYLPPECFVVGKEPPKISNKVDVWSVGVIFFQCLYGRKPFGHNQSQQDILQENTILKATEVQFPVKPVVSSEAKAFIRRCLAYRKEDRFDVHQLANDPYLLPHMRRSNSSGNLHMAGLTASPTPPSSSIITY

[17] = target: Ribosomal protein S6 kinase beta-1 (Homo sapiens, UniProt P23443); test: RPS6KB1 degradation assay; format: functional
[18] = target: Dual specificity tyrosine-phosphorylation-regulated kinase 2 (Homo sapiens) (UniProt Q92630); test: % Activity remaining of DYRK2 in the Dundee kinase panel at 1.0 µM; details: Compound concentration 1.0 uM
Dual specificity tyrosine-phosphorylation-regulated kinase 2 (Homo sapiens), sequence (Q92630 whole entry): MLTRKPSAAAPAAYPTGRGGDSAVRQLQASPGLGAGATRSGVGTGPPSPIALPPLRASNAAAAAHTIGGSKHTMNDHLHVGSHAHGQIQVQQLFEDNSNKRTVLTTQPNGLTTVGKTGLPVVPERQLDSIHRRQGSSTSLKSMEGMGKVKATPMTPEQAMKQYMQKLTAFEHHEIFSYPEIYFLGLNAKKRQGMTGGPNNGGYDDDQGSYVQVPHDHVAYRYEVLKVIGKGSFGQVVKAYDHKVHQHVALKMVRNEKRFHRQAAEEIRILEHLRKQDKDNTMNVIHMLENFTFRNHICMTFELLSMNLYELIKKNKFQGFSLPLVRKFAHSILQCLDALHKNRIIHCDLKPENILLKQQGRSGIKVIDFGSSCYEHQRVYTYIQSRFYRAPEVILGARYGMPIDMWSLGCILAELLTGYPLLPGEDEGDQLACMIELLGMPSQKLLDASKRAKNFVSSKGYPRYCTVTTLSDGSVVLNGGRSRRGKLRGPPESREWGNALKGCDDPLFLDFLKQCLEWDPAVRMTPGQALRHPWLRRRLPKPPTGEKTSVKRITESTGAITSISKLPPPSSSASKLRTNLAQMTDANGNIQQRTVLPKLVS

[19] = target: Glycogen synthase kinase-3 beta (Homo sapiens) (UniProt P49841); test: % Activity remaining of GSK3 beta in the Dundee kinase panel at 1.0 µM; details: Compound concentration 1.0 uM
[20] = target: Inhibitor of nuclear factor kappa-B kinase subunit beta (Homo sapiens) (UniProt O14920); test: % Activity remaining of IKK beta in the Dundee kinase panel at 1.0 µM; details: Compound concentration 1.0 uM
[21] = target: Serine/threonine-protein kinase WNK1 (Homo sapiens) (UniProt Q9H4A3); test: % Activity remaining of WNK1 in the Dundee kinase panel at 1.0 µM; details: Compound concentration 1.0 uM
[22] = target: Tyrosine-protein kinase Yes (Homo sapiens) (UniProt P07947); test: % Activity remaining of YES1 in the Dundee kinase panel at 1.0 µM; details: Compound concentration 1.0 uM
[23] = target: Ephrin type-B receptor 4 (Homo sapiens) (UniProt P54760); test: % Activity remaining of EPH-B4 in the Dundee kinase panel at 1.0 µM; details: Compound concentration 1.0 uM
[24] = target: T1, Serine/threonine-protein kinase Sgk1 (Homo sapiens) (UniProt O00141); test: SGK1 degradation assay; format: functional
T1 sequence (whole entry): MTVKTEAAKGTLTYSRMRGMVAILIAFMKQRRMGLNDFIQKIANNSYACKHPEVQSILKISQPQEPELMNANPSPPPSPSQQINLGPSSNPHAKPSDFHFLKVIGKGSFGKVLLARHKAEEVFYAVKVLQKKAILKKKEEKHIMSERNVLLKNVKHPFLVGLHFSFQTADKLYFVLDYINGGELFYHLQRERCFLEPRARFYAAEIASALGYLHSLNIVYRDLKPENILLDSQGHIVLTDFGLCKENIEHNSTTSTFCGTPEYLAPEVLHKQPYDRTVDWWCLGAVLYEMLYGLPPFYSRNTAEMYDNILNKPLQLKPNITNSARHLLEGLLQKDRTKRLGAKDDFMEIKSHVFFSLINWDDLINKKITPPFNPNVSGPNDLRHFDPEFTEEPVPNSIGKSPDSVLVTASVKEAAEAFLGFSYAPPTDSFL

[25] = target: Tyrosine-protein kinase JAK2 (Homo sapiens) (UniProt O60674); test: % Activity remaining of JAK2 in the Dundee kinase panel at 1.0 µM; details: Compound concentration 1.0 uM
[26] = target: Serine/threonine-protein kinase Nek6 (Homo sapiens) (UniProt Q9HC98); test: % Activity remaining of NEK6 in the Dundee kinase panel at 1.0 µM; details: Compound concentration 1.0 uM
[27] = target: Eukaryotic translation initiation factor 2-alpha kinase 3 (Homo sapiens) (UniProt Q9NZJ5); test: % Activity remaining of EIF2AK3 in the Dundee kinase panel at 1.0 µM; details: Compound concentration 1.0 uM
Eukaryotic translation initiation factor 2-alpha kinase 3 (Homo sapiens), sequence (Q9NZJ5 whole entry): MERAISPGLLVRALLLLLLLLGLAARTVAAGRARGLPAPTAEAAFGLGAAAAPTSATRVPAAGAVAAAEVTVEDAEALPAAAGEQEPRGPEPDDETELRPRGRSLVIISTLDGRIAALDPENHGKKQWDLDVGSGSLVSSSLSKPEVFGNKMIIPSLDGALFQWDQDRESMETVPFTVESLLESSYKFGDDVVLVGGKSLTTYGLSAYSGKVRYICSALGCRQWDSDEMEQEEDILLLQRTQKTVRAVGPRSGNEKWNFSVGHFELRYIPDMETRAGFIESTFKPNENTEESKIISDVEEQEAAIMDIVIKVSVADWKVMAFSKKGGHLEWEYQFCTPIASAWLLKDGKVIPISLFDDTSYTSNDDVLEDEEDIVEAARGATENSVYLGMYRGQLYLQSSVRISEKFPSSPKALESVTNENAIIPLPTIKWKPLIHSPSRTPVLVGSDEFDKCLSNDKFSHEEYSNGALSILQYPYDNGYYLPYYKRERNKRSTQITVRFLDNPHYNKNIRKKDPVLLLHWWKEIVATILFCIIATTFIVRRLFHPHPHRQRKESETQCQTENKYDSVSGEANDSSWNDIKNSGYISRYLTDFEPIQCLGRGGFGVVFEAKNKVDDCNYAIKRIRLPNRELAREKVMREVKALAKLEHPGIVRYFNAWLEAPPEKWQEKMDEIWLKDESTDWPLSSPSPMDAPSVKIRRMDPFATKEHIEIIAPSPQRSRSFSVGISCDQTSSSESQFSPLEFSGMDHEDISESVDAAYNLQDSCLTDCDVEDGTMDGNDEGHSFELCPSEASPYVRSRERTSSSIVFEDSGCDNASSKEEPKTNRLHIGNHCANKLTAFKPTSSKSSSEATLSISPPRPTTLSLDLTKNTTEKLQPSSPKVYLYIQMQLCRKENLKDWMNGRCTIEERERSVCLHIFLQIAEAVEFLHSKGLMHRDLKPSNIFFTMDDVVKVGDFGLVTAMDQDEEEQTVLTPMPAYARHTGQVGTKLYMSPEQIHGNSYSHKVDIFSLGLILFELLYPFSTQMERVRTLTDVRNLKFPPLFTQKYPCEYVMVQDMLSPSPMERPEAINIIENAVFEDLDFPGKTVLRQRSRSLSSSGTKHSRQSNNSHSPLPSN

[28] = target: TGF-beta receptor type-1 (Homo sapiens) (UniProt P36897); test: % Activity remaining of TGFBR1 in the Dundee kinase panel at 1.0 µM; details: Compound concentration 1.0 uM
[29] = target: Mitogen-activated protein kinase kinase kinase 1 (Homo sapiens) (UniProt Q13233); test: % Activity remaining of MEKK1 in the Dundee kinase panel at 1.0 µM; details: Compound concentration 1.0 uM
[30] = target: Tyrosine-protein kinase BTK (Homo sapiens) (UniProt Q06187); test: % Activity remaining of BTK in the Dundee kinase panel at 1.0 µM; details: Compound concentration 1.0 uM
[31] = target: MAP kinase-activated protein kinase 3 (Homo sapiens) (UniProt Q16644); test: % Activity remaining of MAPKAP-K3 in the Dundee kinase panel at 1.0 µM; details: Compound concentration 1.0 uM
[32] = target: Serine/threonine-protein kinase TAO1 (Homo sapiens) (UniProt Q7L7X3); test: % Activity remaining of TAO1 in the Dundee kinase panel at 1.0 µM; details: Compound concentration 1.0 uM
[33] = target: Mitogen-activated protein kinase 15 (Homo sapiens) (UniProt Q8TD08); test: % Activity remaining of ERK8 in the Dundee kinase panel at 1.0 µM; details: Compound concentration 1.0 uM
[34] = target: Serine/threonine-protein kinase Nek2 (Homo sapiens) (UniProt P51955); test: % Activity remaining of NEK2a in the Dundee kinase panel at 1.0 µM; details: Compound concentration 1.0 uM

Mitogen-activated protein kinase kinase kinase 9 (Homo sapiens), sequence (P80192 whole entry, looked up): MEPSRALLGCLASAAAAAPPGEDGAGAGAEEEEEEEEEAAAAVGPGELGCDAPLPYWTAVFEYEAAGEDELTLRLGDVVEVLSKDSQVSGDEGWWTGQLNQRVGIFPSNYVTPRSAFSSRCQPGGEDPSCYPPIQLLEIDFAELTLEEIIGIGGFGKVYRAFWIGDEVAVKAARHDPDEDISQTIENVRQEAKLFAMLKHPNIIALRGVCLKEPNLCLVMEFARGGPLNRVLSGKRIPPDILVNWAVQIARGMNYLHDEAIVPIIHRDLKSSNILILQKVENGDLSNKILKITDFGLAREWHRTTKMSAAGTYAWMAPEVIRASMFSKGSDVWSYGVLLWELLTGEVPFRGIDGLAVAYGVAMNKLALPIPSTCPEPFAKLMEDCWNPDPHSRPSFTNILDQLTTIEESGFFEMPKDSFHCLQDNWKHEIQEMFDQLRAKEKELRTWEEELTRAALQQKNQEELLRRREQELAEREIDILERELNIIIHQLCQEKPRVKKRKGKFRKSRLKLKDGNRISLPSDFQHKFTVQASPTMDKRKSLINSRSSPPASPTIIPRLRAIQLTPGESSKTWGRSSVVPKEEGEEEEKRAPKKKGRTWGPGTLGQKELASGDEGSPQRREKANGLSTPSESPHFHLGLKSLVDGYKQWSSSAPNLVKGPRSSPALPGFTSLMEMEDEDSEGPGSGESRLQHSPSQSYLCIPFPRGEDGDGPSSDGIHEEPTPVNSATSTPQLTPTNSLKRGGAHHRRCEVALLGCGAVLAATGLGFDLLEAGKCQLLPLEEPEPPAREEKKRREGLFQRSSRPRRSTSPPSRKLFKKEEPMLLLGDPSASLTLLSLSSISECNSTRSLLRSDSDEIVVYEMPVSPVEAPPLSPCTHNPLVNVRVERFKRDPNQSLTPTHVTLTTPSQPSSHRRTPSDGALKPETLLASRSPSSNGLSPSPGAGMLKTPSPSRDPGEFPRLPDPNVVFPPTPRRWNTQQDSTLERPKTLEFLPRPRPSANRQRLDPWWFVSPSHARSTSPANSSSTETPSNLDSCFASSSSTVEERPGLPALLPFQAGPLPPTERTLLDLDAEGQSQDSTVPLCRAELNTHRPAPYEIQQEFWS

Row | % Activity remaining [1] | % Activity remaining [2] | % Activity remaining [3] | % Activity remaining [4] | % Activity remaining [5] | % Activity remaining [6] | % Activity remaining [7] | % Activity remaining [8] | % Activity remaining [9] | % Activity remaining [10] | % Activity remaining [11] | % Activity remaining [12] | % Activity remaining [13] | % Activity remaining [14] | % Activity remaining [15] | % Activity remaining [16] | % Activity remaining [18] | % Activity remaining [19] | % Activity remaining [20] | % Activity remaining [21] | Compound | other results
1 | 81.9% | 91.5% | 98.3% | 90.2% | 108% | 95% | 97.9% | 94.6% | 117% | 105% | 113% | 88.1% | 81.1% | 83.2% | 63.8% | 102% | 102% | 108% | 99.9% | 93.8% | Cc1ccc(F)c(S(=O)(=O)Nc2ccc(-c3nc(OC[C@H]4CN(CCCCCCOCCOCCOCC(=O)N[C@H](C(=O)N5C[C@H](O)C[C@H]5C(=O)NCc5ccc(-c6scnc6C)cc5)C(C)(C)C)CCO4)c4cn[nH]c4n3)cc2)c1 | Degradation [17]: 0%; % Activity remaining [22]: 108%; % Activity remaining [23]: 107%; Degradation [24]: 0%; % Activity remaining [25]: 95.4%; % Activity remaining [26]: 106%; % Activity remaining [27]: 106%; % Activity remaining [28]: 124%; % Activity remaining [29]: 124%; % Activity remaining [30]: 96.9%; % Activity remaining [31]: 79%; % Activity remaining [32]: 99%; % Activity remaining [33]: 94.2%; % Activity remaining [34]: 162%
2 | 93.9% | 99.5% | 105% | 96.4% | 109% | 108% | 98.4% | 93.8% | 119% | 117% | 122% | 88.8% | 113% | 90.2% | 80.8% | 109% | 97.3% | 106% | 101% | 96.6% | Cc1ccc(F)c(S(=O)(=O)Nc2ccc(-c3nc(OC[C@H]4CN(CCCCCCOCCOCCOCC(=O)N[C@H](C(=O)N5C[C@@H](O)C[C@H]5C(=O)NCc5ccc(-c6scnc6C)cc5)C(C)(C)C)CCO4)c4cn[nH]c4n3)cc2)c1 | % Activity remaining [22]: 105%; % Activity remaining [23]: 108%; % Activity remaining [25]: 93.6%; % Activity remaining [26]: 111%; % Activity remaining [27]: 111%; % Activity remaining [28]: 114%; % Activity remaining [29]: 128%; % Activity remaining [30]: 90.6%; % Activity remaining [31]: 77%; % Activity remaining [32]: 105%; % Activity remaining [33]: 86.4%; % Activity remaining [34]: 139%

From ChEMBL document CHEMBL5463727, “Data for DCP probe SGK3-PROTAC1” (2023)
